Reference: the NIST ThermoML archive (doi:10.1021/je500792x)

Assay: xn = mol fraction of the nth substance listed
Conditions: Gas, Buoyancy - hydrostatic balance with magnetic suspension - two sinkers

C [methane] + CCC
Conditions	mass density [kg/m3]
293.15 K, 1153.9 kPa, x1 = 0.2658	20.3554
293.15 K, 1175 kPa, x1 = 0.2658	20.8043
293.15 K, 1187.5 kPa, x1 = 0.2658	21.0718
293.15 K, 1209.4 kPa, x1 = 0.5069	16.361
293.15 K, 1399.6 kPa, x1 = 0.5069	19.2777
293.15 K, 1605.8 kPa, x1 = 0.5069	22.5759
298.14 K, 160.58 kPa, x1 = 0.2658	2.414
298.15 K, 311.48 kPa, x1 = 0.2658	4.7646
298.15 K, 471.27 kPa, x1 = 0.2658	7.3487
298.15 K, 493.82 kPa, x1 = 0.7498	4.6835
298.15 K, 500.2 kPa, x1 = 0.7498	4.742
298.15 K, 605.41 kPa, x1 = 0.2658	9.6013
298.15 K, 758.38 kPa, x1 = 0.2658	12.2732
298.15 K, 785.06 kPa, x1 = 0.7498	7.5358
298.15 K, 909.2 kPa, x1 = 0.2658	15.0282
298.15 K, 999.01 kPa, x1 = 0.7498	9.679
298.15 K, 1000.6 kPa, x1 = 0.7498	9.6924
298.15 K, 1055.1 kPa, x1 = 0.2658	17.8236
298.15 K, 1094 kPa, x1 = 0.7498	10.6384
298.15 K, 1201.2 kPa, x1 = 0.2658	20.7664
298.15 K, 1355.7 kPa, x1 = 0.2658	24.0659
298.15 K, 1372.4 kPa, x1 = 0.7498	13.507
298.15 K, 1686.6 kPa, x1 = 0.7498	16.8301
298.15 K, 1999.5 kPa, x1 = 0.7498	20.2389
298.15 K, 2001.4 kPa, x1 = 0.7498	20.2558
298.15 K, 2075.4 kPa, x1 = 0.7498	21.0754
298.15 K, 3006.3 kPa, x1 = 0.7498	31.9148
298.15 K, 3043.9 kPa, x1 = 0.7498	32.3714
298.15 K, 3990.5 kPa, x1 = 0.7498	44.5527
298.15 K, 4003.1 kPa, x1 = 0.7498	44.7224
298.15 K, 4119.5 kPa, x1 = 0.7498	46.3151
298.15 K, 4424.2 kPa, x1 = 0.7498	50.5647
298.15 K, 4993.9 kPa, x1 = 0.7498	58.9113
298.15 K, 5997.5 kPa, x1 = 0.7498	74.9816
298.15 K, 5999.6 kPa, x1 = 0.7498	75.0173
323.16 K, 434.83 kPa, x1 = 0.5069	4.9489
323.16 K, 609.43 kPa, x1 = 0.5069	7.005
323.16 K, 747.99 kPa, x1 = 0.7498	6.5657
323.16 K, 981.92 kPa, x1 = 0.7498	8.6824
323.16 K, 1028.4 kPa, x1 = 0.5069	12.1152
323.16 K, 1206.2 kPa, x1 = 0.5069	14.365
323.16 K, 1225.9 kPa, x1 = 0.7498	10.9233
323.16 K, 1407.1 kPa, x1 = 0.5069	16.9693
323.16 K, 1492.3 kPa, x1 = 0.7498	13.4094
323.16 K, 1603.4 kPa, x1 = 0.5069	19.5802
323.16 K, 1721 kPa, x1 = 0.7498	15.578
323.16 K, 1804.7 kPa, x1 = 0.5069	22.3318
323.16 K, 1913.8 kPa, x1 = 0.5069	23.855
323.16 K, 1988.8 kPa, x1 = 0.7498	18.1586
323.16 K, 3017.7 kPa, x1 = 0.7498	28.51
323.16 K, 4475.4 kPa, x1 = 0.7498	44.4692
323.16 K, 5928.8 kPa, x1 = 0.7498	62.0416
323.17 K, 161.42 kPa, x1 = 0.2658	2.2297
323.17 K, 240.14 kPa, x1 = 0.5069	2.7038
323.17 K, 277.8 kPa, x1 = 0.2658	3.8766
323.17 K, 380.81 kPa, x1 = 0.2658	5.3632
323.17 K, 474.08 kPa, x1 = 0.2658	6.7339
323.17 K, 556.87 kPa, x1 = 0.2658	7.9706
323.17 K, 653.58 kPa, x1 = 0.2658	9.4407
323.17 K, 814.12 kPa, x1 = 0.5069	9.4697
323.17 K, 861.14 kPa, x1 = 0.2658	12.694
323.17 K, 956.3 kPa, x1 = 0.2658	14.2336
323.17 K, 1057.6 kPa, x1 = 0.2658	15.9088
323.17 K, 1155.4 kPa, x1 = 0.2658	17.5614
373.14 K, 736.34 kPa, x1 = 0.5069	7.2655
373.14 K, 1298.1 kPa, x1 = 0.5069	13.0615
373.14 K, 1387.2 kPa, x1 = 0.5069	14.0021
373.14 K, 1906.7 kPa, x1 = 0.5069	19.6043
373.15 K, 286.24 kPa, x1 = 0.5069	2.7813
373.15 K, 293.98 kPa, x1 = 0.7498	2.1956
373.15 K, 494.25 kPa, x1 = 0.7498	3.7047
373.15 K, 559.53 kPa, x1 = 0.5069	5.4874
373.15 K, 587.98 kPa, x1 = 0.5069	5.7723
373.15 K, 732.21 kPa, x1 = 0.7498	5.5128
373.15 K, 776.15 kPa, x1 = 0.5069	7.6695
373.15 K, 942.67 kPa, x1 = 0.5069	9.3682
373.15 K, 969.14 kPa, x1 = 0.5069	9.6405
373.15 K, 973.87 kPa, x1 = 0.7498	7.3646
373.15 K, 1118.7 kPa, x1 = 0.5069	11.1859
373.15 K, 1177.4 kPa, x1 = 0.5069	11.7969
373.15 K, 1222.4 kPa, x1 = 0.7498	9.2859
373.15 K, 1491.1 kPa, x1 = 0.7498	11.3819
373.15 K, 1497 kPa, x1 = 0.5069	15.1688
373.15 K, 1581.5 kPa, x1 = 0.5069	16.0735
373.15 K, 1707.3 kPa, x1 = 0.5069	17.4293
373.15 K, 1745.3 kPa, x1 = 0.5069	17.8434
373.15 K, 1990.9 kPa, x1 = 0.7498	15.3338
373.15 K, 1998.3 kPa, x1 = 0.7498	15.3921
373.15 K, 1999.3 kPa, x1 = 0.5069	20.6289
373.15 K, 3998.4 kPa, x1 = 0.7498	31.915
373.15 K, 4503 kPa, x1 = 0.7498	36.2589
373.15 K, 5859.6 kPa, x1 = 0.7498	48.2829
373.16 K, 150.36 kPa, x1 = 0.2658	1.7881
373.16 K, 249.5 kPa, x1 = 0.2658	2.984
373.16 K, 442.47 kPa, x1 = 0.2658	5.3479
373.16 K, 487.18 kPa, x1 = 0.7498	3.6521
373.16 K, 564.91 kPa, x1 = 0.2658	6.8735
373.16 K, 592.63 kPa, x1 = 0.2658	7.2228
373.16 K, 676.04 kPa, x1 = 0.2658	8.2772
373.16 K, 733.18 kPa, x1 = 0.2658	9.007
373.16 K, 866.5 kPa, x1 = 0.2658	10.7249
373.16 K, 883.43 kPa, x1 = 0.2658	10.9464
373.16 K, 963.18 kPa, x1 = 0.2658	11.9881
373.16 K, 991.05 kPa, x1 = 0.7498	7.4967
373.16 K, 1034.3 kPa, x1 = 0.2658	12.9279
373.16 K, 1057.2 kPa, x1 = 0.2658	13.2303
373.16 K, 1156.4 kPa, x1 = 0.2658	14.557
373.16 K, 1174.7 kPa, x1 = 0.2658	14.8058
373.16 K, 1293.1 kPa, x1 = 0.2658	16.4139
373.16 K, 1468.2 kPa, x1 = 0.7498	11.1998
373.16 K, 1985.8 kPa, x1 = 0.7498	15.2929
373.16 K, 2987.4 kPa, x1 = 0.7498	23.4236
373.16 K, 2996.6 kPa, x1 = 0.7498	23.4974
373.16 K, 3945 kPa, x1 = 0.7498	31.4611
373.16 K, 4881.1 kPa, x1 = 0.7498	39.5669
373.16 K, 6041.3 kPa, x1 = 0.7498	49.9291
373.17 K, 281.96 kPa, x1 = 0.2658	3.3776
373.17 K, 361.95 kPa, x1 = 0.2658	4.3551
373.17 K, 469.53 kPa, x1 = 0.2658	5.683
